Source: patent publication US9889113B2, “Method for reversing, preventing, delaying or stabilizing soft tissue calcification” (Panion & BF Biotech, Inc., priority 2006, dated 2018)

Assays:
[1] = tested on: patients with end stage renal disease (ESRD); experiment: Treatment-emergent adverse events in the dose-ranging study; type: in vivo, human
Source text: (§1) Objectives: (1) To determine the effect of ferric citrate at doses of 2, 4 and 6 g daily, administered TID (three times a day), for 28 days on serum phosphate (PO4) levels in patients with end stage renal disease (ESRD). (2) To evaluate the safety of ferric citrate at doses of 2, 4, 6 g daily, administered TID, for 28 days in patients with ESRD.
(§2) Study Design: Randomized, double-blind, placebo-controlled, dose-ranging study to assess the effect of ferric citrate on serum phosphate concentrations in patients with ESRD on hemodialysis. Patients are assessed at Study Days 14 and 28 for effectiveness as measured by serum phosphate concentrations. Patients who received one or more doses of study medication are also assessed for safety.

[2] = tested on: patients with end stage renal disease (ESRD) on hemodialysis; experiment: Randomized, double-blind, placebo-controlled, dose-ranging study of ferric citrate on serum phosphate, Ca and Ca×PO4; type: in vivo, human; details: for Serum [Ca] (mg/dL) at Day 0 / Serum [PO4] (mg/dL) at Day 0 / [Ca] * [PO4] (mg/dL)^2 at Day 0: Day 0 baseline; for Serum Ca (mg/dL): Linear Regression: N.S.: Not Significant
Source text: as §1, §2
Study Duration: 8 weeks (including the screening period, 2 weeks washout, 4 weeks treatment)
Ferric citrate is administered orally, and is given equally three times a day.

[3] = 0, 2, 4 and 6 gm/day, TID immediately after meals
[4] = 6 g/day (N = 32), Day 28, *P < 0.05 baseline change vs placebo
[5] = Day 14, 2, 4, 6 g/day TID vs placebo
[6] = Day 28, 2, 4, 6 g/day TID vs placebo

`O=C([O-])CC(O)(CC(=O)[O-])C(=O)[O-].[Fe+3]` [ferric citrate] was tested, and the “GI Disorder, Probably (relationship): # Event” value ([1]; 6 g/day (N = 33)) was 5, the “GI Disorder, Probably (relationship): (%)” value ([1]; 6 g/day (N = 33)) was “(15.2) %” and the “GI Disorders (System Organ Class): # Event” value ([1]; 6 g/day (N = 33)) was 10. For the same compound, the “GI Disorders (System Organ Class): (%)” value ([1]; 6 g/day (N = 33)) was “(30.3) %”, the “GI Disorders, Mild (severity): # Event” value ([1]; 6 g/day (N = 33)) was 9 and the “GI Disorders, Mild (severity): (%)” value ([1]; 6 g/day (N = 33)) was “(27.3) %”. The “General Disorders (System Organ Class): # Event” value ([1]; 6 g/day (N = 33)) was 4, the “General Disorders (System Organ Class): (%)” value ([1]; 6 g/day (N = 33)) was “(12.1) %” and the “Infections and Infestations (System Organ Class): # Event” value ([1]; 6 g/day (N = 33)) was 1. For the same compound, the “Infections and Infestations (System Organ Class): (%)” value ([1]; 6 g/day (N = 33)) was “(3.0) %”, the “Skin and SC Tissue Disorders (System Organ Class): # Event” value ([1]; 6 g/day (N = 33)) was 4 and the “Skin and SC Tissue Disorders (System Organ Class): (%)” value ([1]; 6 g/day (N = 33)) was “(12.1) %”. For the same compound, the “T#at1AE, Definitely (relationship): # Event” value ([1]; 6 g/day (N = 33)) was 0, the “T#at1AE, Definitely (relationship): (%)” value ([1]; 6 g/day (N = 33)) was “(0.0) %” and the “T#at1AE, Mild (severity): # Event” value ([1]; 6 g/day (N = 33)) was 14. For the same compound, the “T#at1AE, Mild (severity): (%)” value ([1]; 6 g/day (N = 33)) was “(42.4) %”, the “T#at1AE, Moderate (severity): # Event” value ([1]; 6 g/day (N = 33)) was 2 and the “T#at1AE, Moderate (severity): (%)” value ([1]; 6 g/day (N = 33)) was “(6.1) %”. For the same compound, the “T#at1AE, Possibly (relationship): # Event” value ([1]; 6 g/day (N = 33)) was 2, the “T#at1AE, Possibly (relationship): (%)” value ([1]; 6 g/day (N = 33)) was “(6.1) %” and the “T#at1AE, Probably (relationship): # Event” value ([1]; 6 g/day (N = 33)) was 5. The “T#at1AE, Probably (relationship): (%)” value ([1]; 6 g/day (N = 33)) was “(15.2) %”, the “T#at1AE, Severe (severity): # Event” value ([1]; 6 g/day (N = 33)) was 1 and the “T#at1AE, Severe (severity): (%)” value ([1]; 6 g/day (N = 33)) was “(3.0) %”. The “Total number of subjects with at least one adverse event (T#at1AE): # Event” value ([1]; 6 g/day (N = 33)) was 17, the “Total number of subjects with at least one adverse event (T#at1AE): (%)” value ([1]; 6 g/day (N = 33)) was “(51.5) %” and the side effect ([1]; Phase II study) was “minimum side effect”. The “Ca*PO4” value [2, 3] was “decrease”, the “serum PO4” value [2, 3] was “decrease” and the “Serum [Ca] (mg/dL) at Day 0” value ([2]; 2 g/day (N = 31)) was 8.78 mg/dL. For the same compound, the “Serum [PO4] (mg/dL) at Day 0” value ([2]; 2 g/day (N = 31)) was 7.2 mg/dL, the “[Ca] * [PO4] (mg/dL)^2 at Day 0” value ([2]; 2 g/day (N = 31)) was 62.9 (mg/dL)^2 and the “Serum [Ca] (mg/dL) at Day 14” value ([2]; 2 g/day (N = 31), Day 14) was 9.01 mg/dL. The “Serum [PO4] (mg/dL) at Day 14” value ([2]; 2 g/day (N = 31), Day 14) was 6.7 mg/dL, the “[Ca] * [PO4] (mg/dL)^2 at Day 14” value ([2]; 2 g/day (N = 31), Day 14) was 60.3 (mg/dL)^2 and the “Serum [Ca] (mg/dL) at Day 28” value ([2]; 2 g/day (N = 31), Day 28) was 9.00 mg/dL. The “Serum [PO4] (mg/dL) at Day 28” value ([2]; 2 g/day (N = 31), Day 28) was 6.9 mg/dL, the “[Ca] * [PO4] (mg/dL)^2 at Day 28” value ([2]; 2 g/day (N = 31), Day 28) was 61.7 (mg/dL)^2 and the “Serum [Ca] (mg/dL) at Day 0” value ([2]; 4 g/day (N = 32)) was 9.02 mg/dL. The “Serum [PO4] (mg/dL) at Day 0” value ([2]; 4 g/day (N = 32)) was 7.1 mg/dL, the “[Ca] * [PO4] (mg/dL)^2 at Day 0” value ([2]; 4 g/day (N = 32)) was 63.5 (mg/dL)^2 and the “Serum [Ca] (mg/dL) at Day 14” value ([2]; 4 g/day (N = 32), Day 14) was 9.47 mg/dL. For the same compound, the “Serum [PO4] (mg/dL) at Day 14” value ([2]; 4 g/day (N = 32), Day 14) was 6.4 mg/dL, the “[Ca] * [PO4] (mg/dL)^2 at Day 14” value ([2]; 4 g/day (N = 32), Day 14) was 59.9 (mg/dL)^2 and the “Serum [Ca] (mg/dL) at Day 28” value ([2]; 4 g/day (N = 32), Day 28) was 9.29 mg/dL. For the same compound, the “Serum [PO4] (mg/dL) at Day 28” value ([2]; 4 g/day (N = 32), Day 28) was 6.0 mg/dL, the “[Ca] * [PO4] (mg/dL)^2 at Day 28” value ([2]; 4 g/day (N = 32), Day 28) was 55.4 (mg/dL)^2 and the “Serum [Ca] (mg/dL) at Day 0” value ([2]; 6 g/day (N = 32)) was 8.99 mg/dL. For the same compound, the “Serum [PO4] (mg/dL) at Day 0” value ([2]; 6 g/day (N = 32)) was 7.3 mg/dL, the “[Ca] * [PO4] (mg/dL)^2 at Day 0” value ([2]; 6 g/day (N = 32)) was 65.8 (mg/dL)^2 and the “Serum [Ca] (mg/dL) at Day 14” value ([2]; 6 g/day (N = 32), Day 14) was 9.13 mg/dL. For the same compound, the “Serum [PO4] (mg/dL) at Day 14” value ([2]; 6 g/day (N = 32), Day 14) was 6.3 mg/dL, the “[Ca] * [PO4] (mg/dL)^2 at Day 14” value ([2]; 6 g/day (N = 32), Day 14) was 57.5 (mg/dL)^2 and the “Serum [Ca] (mg/dL) at Day 28” value ([2]; 6 g/day (N = 32), Day 28) was 9.26 mg/dL. For the same compound, the “Serum [PO4] (mg/dL) at Day 28” value [2, 4] was 5.8 mg/dL, the “[Ca] * [PO4] (mg/dL)^2 at Day 28” value [2, 4] was 54.1 (mg/dL)^2 and the “Ca*P04 levels” value ([2]; 6 gm/day dose at both 14 and 28 days) was “have decreased and were statistically significant”. The “Serum Ca (mg/dL): Dose Response” value ([2]; Day 0) was “No”, the “Ca × PO4 (mg/dL)^2: Dose Response” value [2, 5] was “Yes” and the “Ca × PO4 (mg/dL)^2: Linear Regression P” value [2, 5] was “P = 0.0401”. The “Ca × PO4 (mg/dL)^2: Statistical Significant” value [2, 5] was “No”, the “Serum Ca (mg/dL): Dose Response” value [2, 5] was “No” and the “Serum Ca (mg/dL): Statistical Significant” value [2, 5] was “No”. For the same compound, the “Serum PO4 (mg/dL): Dose Response” value [2, 5] was “No”, the “Serum PO4 (mg/dL): Statistical Significant” value [2, 5] was “No” and the “Serum Ca (mg/dL): Linear Regression” value ([2]; Day 14) was “N.S”. The “Ca × PO4 (mg/dL)^2: Dose Response” value [2, 6] was “Yes”, the “Serum Ca (mg/dL): Dose Response” value [2, 6] was “No” and the “Serum Ca (mg/dL): Statistical Significant” value [2, 6] was “No”. For the same compound, the “Serum PO4 (mg/dL): Dose Response” value [2, 6] was “Yes”, the “Serum PO4 (mg/dL): Linear Regression P” value [2, 6] was “P = 0.0073” and the “Serum PO4 (mg/dL): Statistical Significant” value [2, 6] was “Yes (6 g/day)”. For the same compound, the “[Ca] * [PO4] (mg/dL)^2: Dose Response” value ([2]; Day 28, 2, 4, 6 g/day vs placebo) was “Yes”, the “Serum Ca (mg/dL): Linear Regression” value ([2]; Day 28) was “N.S” and the “Ca × PO4 (mg/dL)^2: Statistical Significant” value ([2]; Day 78, 2, 4, 6 g/day TID vs placebo) was “Yes (6 g/day)”. For the same compound, the “serum Ca×P” value ([2]; Phase II study) was “decrease serum Ca×P in a dose-dependent manner”, the “change in serum calcium level” value ([2]; during the 28 days, 2, 4, and 6 gm/day) was “No significant change” and the “ability to lower serum phosphate levels” value ([2]; patients with ESRD) was “demonstrated”.
